Results published in patent US9452177B2, “Vitamin D compounds and methods for reducing ocular hypertension (OHT)” (Wisconsin Alumni Research Foundation, priority 2008, dated 2016).
Entries after “also recorded” stand apart in the source; their conditions may differ.

Tests used:
[1] = Serum Ca2+ level after ocular topical applications; type: in vivo, cynomolgus monkeys (Macaca fascicularis); conditions: 5 μg, 3 days, total 5 unilateral topical applications
Experimental: Under ketamine anesthesia (KETAJECT™, Phoenix Pharmaceutical, St Joseph, Mo. (3-25 mg/kg i.m., supplemented with 1-10 mg/kg i.m. as needed) baseline IOP was determined, usually between 7:30 and 9 am (2 readings, 5 minutes apart; if IOP baseline measurements were not within 2-3 mm Hg of each other, a 3rd reading was taken 5 min later). Baseline IOP was at least 15 mmHg if possible. A baseline blood sample was taken from the femoral artery or vein, or sometimes the brachial vein (1-2 ml). This was allowed to clot and then spun down (3000 rpm for 10 min, Damon/IEC NH-SII centrifuge) and the serum removed and frozen at −20 C for no more than 1 week. Baseline systolic, diastolic and mean arterial pressure as well as heart rate were recorded with the Dinamap monitor from a cuff placed around the arm or the leg.
On the 3th day, prior to the 5th treatment, baseline IOP, biomicroscopy and MAP were determined. […] Following the 5th dose, IOP was measured at 1, 2, 3, 4, 5, 6, 7, 8, 12 (if possible), 24, and sometimes 48 hr. […] MAP on day 3 (some protocols) was determined at 1, 2, 3, 4, 5, 6, 7, 8, 24 and sometimes 48 hr if possible. […] For some protocols, IOP was also measured prior to each treatment; MAP was measured prior to the morning treatment; blood was collected prior to the afternoon treatment. […]

[2] = tested on: eyes of cynomolgus monkeys; test: Aqueous humor formation rate by ocular scanning fluorophotometry; type: in vivo; conditions: for AHF Rx/Baseline, Vitamin D eye / AHF Rx/Baseline, Vitamin D/Vehicle / AHF ratio Vitamin D/Vehicle after treatment / Aqueous humor formation (AHF), Vitamin D eye after treatment: 5 μg
Experimental: (§1) Ocular normotensive adult cynomolgus monkeys, of either sex, weighing 3-7 kg were anesthetized with i.m. ketamine HCl (3-25 mg/kg, supplemented with 1-10 mg/kg) for IOP, topical drop administration and aqueous humor flow measurements. All monkeys were free of any ocular abnormalities according to slit lamp biomicroscopy at the time measurements were taken. For outflow facility measurements, animals were given intravenous sodium pentobarbital (15 mg/kg, supplemented with 5-10 mg/kg) following i.m. ketamine induction.
Aqueous humor formation rate was determined by ocular scanning fluorophotometry (Fluorotron Master, OcuMetrics Inc, Mountain View, Calif.) as previously described [Rasmussen, 2007]. Fluorescein drops were administered at least 30 minutes after the fourth treatment (see above) with vitamin D or vehicle. On day 3, prior to the fifth treatment, IOP and biomicroscopy were done. Following the fifth treatment scans were taken hourly, beginning 1 hour after treatment, until 6 duplicates scans were collected. Baseline scans were collected for 6 hours within 2 weeks before and at least 2 weeks after the treatment study. Post treatment aqueous humor formation rates were compared to the average of the pre and post baseline scans and to the vehicle treated eyes by the paired t-test for ratios different from 1.0. There were 8 monkeys for each treatment group.
Aqueous humor formation was measured by fluorophotometry during the interval 1-6 hr after the 5th topical bid treatment with vitamin D or vehicle to opposite eyes (see Materials and Methods). Units for aqueous humor formation are μl/min. Data are Mean±Sem. Rx, treatment (Vitamin D or vehicle) n=6.

[3] = tested on: monkey eyes; test: Outflow facility by two-level constant pressure perfusion of the anterior chamber; type: in vivo, cynomolgus monkeys; conditions: for increase in outflow facilities, vitamin D treated eyes: combined n=8
Experimental: as §1
Outflow facility was determined in pentobarbital-anesthetized monkeys [Gabelt, 2004] by two-level constant pressure perfusion of the anterior chamber with Bárány's perfusand [Bárány, 1964] (n=8). Four monkeys (group A) received the single bolus injection of 1 μl of 1 μg vitamin D 1,25-dihydroxyvitamin D3 (1,25-(OH)2D3) into the anterior chamber of one eye (Treated eye) or 1 μl of propylene glycol into the anterior chamber of fellow eye (Control eye). Four monkeys (group B) were treated topically with 5 μg of vitamin D in 5 μl of propylene glycol or vehicle (5 μl of propylene glycol) twice daily for two days.
Following baseline outflow facility measurements on the third day, the fifth treatment was administered as a single bolus injection of 1 μl of 1 μg vitamin D 1,25-dihydroxyvitamin D3 (1,25-(OH)2D3) into the anterior chamber of one eye (Treated eye) or 1 μl of propylene glycol into the anterior chamber of fellow eye (Control eye). Following injections, the treatment bolus was allowed to wash in for 5 min with flow from the reservoirs. Then the contents of the anterior chamber were mixed by blowing cold air on the cornea to create convection. Reservoirs were closed for 75 minutes, then reopened and outflow facility measured for 60-90 minutes. Data were averaged for the entire 60-90 minute period and for 30-minute intervals and then were compared to baseline and to the vehicle treated eyes. Ratios were compared by the two-tailed paired t-test for ratios different from 1.0.
Baseline outflow facilities were studied in two groups (A and B) of monkeys (Materials and Methods). Group A (n=4) was treated with single bolus intracameral injection of 1 μg vitamin D (1,25-(OH)2D3) in 1 μl propylene glycol in one eye and 1 μl vehicle, propylene glycol in the control eye (Table 2, A). Group B (n=4) was treated topically with 5 μg of vitamin D in 5 μl of propylene glycol or vehicle (5 μl of propylene glycol) twice daily for two days. Then, following baseline outflow facility measurements on the third day, the fifth treatment was administered as a single bolus injection of 1 μl of 1 μg vitamin D 1,25-dihydroxyvitamin D3 (1,25-(OH)2D3) into the anterior chamber of one eye (Treated eye) or 1 μl of propylene glycol into the anterior chamber of fellow eye (Control eye).

[4] = Hours 1-3 after 5th topical bid treatment
[5] = Hours 1-6 after 5th topical bid treatment
[6] = Hours 4-6 after 5th topical bid treatment
[7] = Combined data for Groups A and B, n=8
[8] = Group A, 1 μg intracameral, n=4
[9] = Group B, 5 μg topical (4 treatments) then 1 μg intracameral, n=4

## C=C1/C(=C\C=C2/CCC[C@]3(C)[C@@H]([C@H](C)CCCC(C)(C)O)CC[C@@H]23)C[C@@H](O)C[C@@H]1O [1,25-(OH)2D3, 1α,25-dihydroxyvitamin D3]
[1]
  blood serum calcium levels: did not change
[2]; 5 μg topical, compared to baseline or vehicle eye
  change in aqueous humor formation rate: no changes in the aqueous humor formation rates; also recorded: does not change the aqueous humor formation
[2]; [4]
  AHF Rx/Baseline, Vitamin D eye: 1.06 ± 0.10
  AHF Rx/Baseline, Vitamin D/Vehicle: 1.07 ± 0.06
  AHF ratio Vitamin D/Vehicle after treatment: 0.94 ± 0.05
  Aqueous humor formation (AHF), Vitamin D eye after treatment: 1.27 ± 0.08 µL/min
[2]; [5]
  AHF Rx/Baseline, Vitamin D eye: 1.14 ± 0.06
  AHF Rx/Baseline, Vitamin D/Vehicle: 1.10 ± 0.07
  AHF ratio Vitamin D/Vehicle after treatment: 1.01 ± 0.07
  Aqueous humor formation (AHF), Vitamin D eye after treatment: 1.53 ± 0.10 µL/min
[2]; [6]
  AHF Rx/Baseline, Vitamin D eye: 1.25 ± 0.09
  AHF Rx/Baseline, Vitamin D/Vehicle: 1.22 ± 0.16
  AHF ratio Vitamin D/Vehicle after treatment: 0.98 ± 0.10
  Aqueous humor formation (AHF), Vitamin D eye after treatment: 1.54 ± 0.14 µL/min
[3]; [7]
  Cumulative 90 min outflow facility, Treated eye after Vitamin D: 0.44 ± 0.13 μl/min/mmHg
  Outflow facility Vitamin D/Baseline, Treated/Control: 0.94 ± 0.11
  Outflow facility ratio Treated/Control after Vitamin D: 0.87 ± 0.16
[3]; Combined data for Groups A and B, n=8, *p<0.05 vs 1.0
  Outflow facility Vitamin D/Baseline, Treated eye: 1.59 ± 0.19*
[3]; [8]
  Cumulative 90 min outflow facility, Treated eye after Vitamin D: 0.37 ± 0.07 μl/min/mmHg
  Outflow facility Vitamin D/Baseline, Treated eye: 1.80 ± 0.30
  Outflow facility Vitamin D/Baseline, Treated/Control: 1.04 ± 0.13
  Outflow facility ratio Treated/Control after Vitamin D: 0.82 ± 0.20
[3]; [9]
  Cumulative 90 min outflow facility, Treated eye after Vitamin D: 0.51 ± 0.26 μl/min/mmHg
  Outflow facility Vitamin D/Baseline, Treated eye: 1.39 ± 0.45
  Outflow facility Vitamin D/Baseline, Treated/Control: 0.84 ± 0.18
  Outflow facility ratio Treated/Control after Vitamin D: 0.91 ± 0.27
[3]; at 60 min, significant
  increase in outflow facilities, vitamin D treated eyes: 60%
[3]; at 90 min, significant
  increase in outflow facilities, vitamin D treated eyes: 115%
[3]; at 90 min after the intracameral injections
  increase in outflow facilities over baseline, both eyes: about 100%
[3]; cumulative 90 min, groups A and B and combined
  outflow facility, vitamin D versus vehicle treated eyes: no significant differences were found neither between the vitamin D or vehicle treated eyes; also recorded: did not change either the aqueous humor flow or the outflow facilities
[3]; first 30 min after the bolus injection, non-significant
  increase in outflow facilities, vitamin D treated eyes: 10%
